According to PubChem BioAssay AID1963870 (Molecular Pharmacology Branch, DTP, NCI, 2024):

System: 292921-168-R-J2-PDC KRAS tumor spheroid viability
Assay: Anticancer human tumor 292921-168-R-J2-PDC patient-derived pancreatic carcinoma cell line growth inhibition [KRAS2]
Details: spheroids with HUVEC and MSC; for IC50: curve of first compound; for viability, T/C: stronger effect = lower value
Summary of the method: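 KRAS-mutant tumor cells were grown as spheroids with HUVEC endothelial cells and human MSCs as stroma. Targeted agents were tested alone and with KRAS pathway inhibitors. Doses started at or near clinical Cmax, or 10 microM, descending half-log.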

[1] = second compound 0.1 µM, first compound 0.0316 µM
[2] = second compound 0.1 µM, first compound 0.1 µM
[3] = second compound 0.316 µM, first compound 0.0316 µM
[4] = second compound 0.316 µM, first compound 0.1 µM
[5] = second compound 1 µM, first compound 0.0316 µM
[6] = second compound 1 µM, first compound 0.1 µM
[7] = second compound 3.16 µM, first compound 0.0316 µM
[8] = second compound 3.16 µM, first compound 0.1 µM
[9] = second compound 10 µM, first compound 0.0316 µM
[10] = second compound 10 µM, first compound 0.1 µM
[11] = second compound 0.1 µM, first compound 0.316 µM
[12] = second compound 0.1 µM, first compound 1 µM
[13] = second compound 0.1 µM, first compound 3.16 µM
[14] = second compound 0.1 µM, first compound 10 µM
[15] = second compound 0.316 µM, first compound 0.316 µM
[16] = second compound 0.316 µM, first compound 1 µM
[17] = second compound 0.316 µM, first compound 3.16 µM
[18] = second compound 0.316 µM, first compound 10 µM
[19] = second compound 1 µM, first compound 0.316 µM
[20] = second compound 1 µM, first compound 1 µM
[21] = second compound 1 µM, first compound 3.16 µM
[22] = second compound 1 µM, first compound 10 µM
[23] = second compound 3.16 µM, first compound 0.316 µM
[24] = second compound 3.16 µM, first compound 1 µM
[25] = second compound 3.16 µM, first compound 3.16 µM
[26] = second compound 3.16 µM, first compound 10 µM
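Also: drug exposure lasted seven days after spheroids formed for three days.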
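For viability, T/C in this document: percent of DMSO vehicle control viability which is 100%.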

## Cn1ncnc1[C@H]1c2n[nH]c(=O)c3cc(F)cc(c23)N[C@@H]1c1ccc(F)cc1 + CC1OCC2(CCN(c3cnc(Sc4ccnc(N)c4Cl)c(N)n3)CC2)C1N
Second compound 0.1 µM
  IC50: > 100 nM
Second compound 0.316 µM
  IC50: > 100 nM
Second compound 1 µM
  IC50: 0.634 nM
Second compound 3.16 µM
  IC50: < 0.316 nM
Second compound 10 µM
  IC50: < 0.316 nM
Second compound 0.1 µM, first compound 0.000316 µM
  viability, T/C: 84.8%
Second compound 0.1 µM, first compound 0.001 µM
  viability, T/C: 78.6%
Second compound 0.1 µM, first compound 0.00316 µM
  viability, T/C: 82.5%
Second compound 0.1 µM, first compound 0.01 µM
  viability, T/C: 76.4%
[1]
  viability, T/C: 66.3%
[2]
  viability, T/C: 58.2%
Second compound 0.316 µM, first compound 0.000316 µM
  viability, T/C: 66.1%
Second compound 0.316 µM, first compound 0.001 µM
  viability, T/C: 60.9%
Second compound 0.316 µM, first compound 0.00316 µM
  viability, T/C: 65%
Second compound 0.316 µM, first compound 0.01 µM
  viability, T/C: 56%
[3]
  viability, T/C: 59.4%
[4]
  viability, T/C: 51.9%
Second compound 1 µM, first compound 0.000316 µM
  viability, T/C: 48.7%
Second compound 1 µM, first compound 0.001 µM
  viability, T/C: 51.7%
Second compound 1 µM, first compound 0.00316 µM
  viability, T/C: 49.2%
Second compound 1 µM, first compound 0.01 µM
  viability, T/C: 44.4%
[5]
  viability, T/C: 39.2%
[6]
  viability, T/C: 39.1%
Second compound 3.16 µM, first compound 0.000316 µM
  viability, T/C: 40.8%
Second compound 3.16 µM, first compound 0.001 µM
  viability, T/C: 39%
Second compound 3.16 µM, first compound 0.00316 µM
  viability, T/C: 37.4%
Second compound 3.16 µM, first compound 0.01 µM
  viability, T/C: 36.2%
[7]
  viability, T/C: 33.4%
[8]
  viability, T/C: 30.8%
Second compound 10 µM, first compound 0.000316 µM
  viability, T/C: 34.5%
Second compound 10 µM, first compound 0.001 µM
  viability, T/C: 34.5%
Second compound 10 µM, first compound 0.00316 µM
  viability, T/C: 32%
Second compound 10 µM, first compound 0.01 µM
  viability, T/C: 30.6%
[9]
  viability, T/C: 29.5%
[10]
  viability, T/C: 26.5%

## COc1cc(Nc2ncc3c(n2)-c2ccc(Cl)cc2C(c2c(F)cccc2OC)=NC3)ccc1C(=O)O + C=CC(=O)N1CCN(c2nc(OCC3CCCN3C)nc3c2CCN(c2cccc4cccc(C)c24)C3)CC1CC#N
Second compound 0.0316 µM
  IC50: < 31.6 nM
Second compound 0.1 µM
  IC50: < 31.6 nM
Second compound 0.316 µM
  IC50: < 31.6 nM
Second compound 1 µM
  IC50: < 31.6 nM
Second compound 3.16 µM
  IC50: < 31.6 nM
Second compound 0.0316 µM, first compound 0.0316 µM
  viability, T/C: 28.8%
Second compound 0.0316 µM, first compound 0.1 µM
  viability, T/C: 25.6%
Second compound 0.0316 µM, first compound 0.316 µM
  viability, T/C: 28.7%
Second compound 0.0316 µM, first compound 1 µM
  viability, T/C: 29.4%
Second compound 0.0316 µM, first compound 3.16 µM
  viability, T/C: 26.1%
Second compound 0.0316 µM, first compound 10 µM
  viability, T/C: 17.1%
[1]
  viability, T/C: 24.8%
[2]
  viability, T/C: 25.7%
[11]
  viability, T/C: 26.8%
[12]
  viability, T/C: 27.2%
[13]
  viability, T/C: 23.5%
[14]
  viability, T/C: 15.9%
[3]
  viability, T/C: 18.8%
[4]
  viability, T/C: 17.9%
[15]
  viability, T/C: 23.5%
[16]
  viability, T/C: 23.3%
[17]
  viability, T/C: 21.1%
[18]
  viability, T/C: 14.4%
[5]
  viability, T/C: 11.2%
[6]
  viability, T/C: 10.8%
[19]
  viability, T/C: 14.9%
[20]
  viability, T/C: 15.4%
[21]
  viability, T/C: 14.2%
[22]
  viability, T/C: 10.3%
[7]
  viability, T/C: 0.22%
[8]
  viability, T/C: 0.2%
[23]
  viability, T/C: 0.13%
[24]
  viability, T/C: 1.99%
[25]
  viability, T/C: 0.44%
[26]
  viability, T/C: 0.41%

## CC1(C)CCC(CN2CCN(c3ccc(C(=O)NS(=O)(=O)c4ccc(NCC5CCOCC5)c([N+](=O)[O-])c4)c(Oc4cnc5[nH]ccc5c4)c3)CC2)=C(c2ccc(Cl)cc2)C1 + CNCc1ccccc1-c1csc(C(C)Nc2nc(C)nc3cc(OC)c(OC)cc23)c1
Second compound 0.1 µM
  IC50: 1950 nM
Second compound 0.316 µM
  IC50: 2130 nM
Second compound 1 µM
  IC50: 1380 nM
Second compound 3.16 µM
  IC50: < 31.6 nM
Second compound 10 µM
  IC50: < 31.6 nM
[1]
  viability, T/C: 94.3%
[2]
  viability, T/C: 93.4%
[11]
  viability, T/C: 102%
[12]
  viability, T/C: 88.4%
[13]
  viability, T/C: 22%
[14]
  viability, T/C: 8.05%
[3]
  viability, T/C: 87.7%
[4]
  viability, T/C: 86.9%
[15]
  viability, T/C: 94.4%
[16]
  viability, T/C: 86.6%
[17]
  viability, T/C: 30.8%
[18]
  viability, T/C: 6.47%
[5]
  viability, T/C: 60.5%
[6]
  viability, T/C: 62.5%
[19]
  viability, T/C: 68.2%
[20]
  viability, T/C: 66.6%
[21]
  viability, T/C: 13%
[22]
  viability, T/C: 5.94%
[7]
  viability, T/C: 0.12%
[8]
  viability, T/C: 1.9%
[23]
  viability, T/C: 0.25%
[24]
  viability, T/C: 0.79%
[25]
  viability, T/C: 0.4%
[26]
  viability, T/C: 0.64%
[9]
  viability, T/C: 0.08%
[10]
  viability, T/C: 0.08%
Second compound 10 µM, first compound 0.316 µM
  viability, T/C: 0.23%
Second compound 10 µM, first compound 1 µM
  viability, T/C: 0.08%
Second compound 10 µM, first compound 3.16 µM
  viability, T/C: 0.09%
Second compound 10 µM, first compound 10 µM
  viability, T/C: 0.28%
